Measurements published in PMC6445163, “Design, synthesis, and evaluation of novel 2-phenylpropionic acid derivatives as dual COX inhibitory-antibacterial agents” (Journal of Enzyme Inhibition and Medicinal Chemistry, 2017).

Test system: TA100 (base-pair substitutions)
Experiment: Ames MPF mutagenicity assay, TA100
Format: cell-based, Salmonella typhimurium
Conditions: Salmonella typhimurium; each concentration, with and without S9; read-out: Fold inductions over baseline, TA 100
Method: Salmonella typhimurium strains, TA98 (frameshift mutations) and TA100 (base-pair substitutions), are used in this assay. Concentration range of the compounds was between […] and 5000 µg/mL according to the previous guidelines. Compounds were prepared in six different concentrations (5, 2.5, 1.25, 0.625, 0.3125 and 0.156 mg/mL) in DMSO. Mutagenic potential was determined in absence and presence of Aroclor™-1254 induced male Sprague–Dawley rat liver microsomal enzyme (S9) mix (Xenometrix AG, Switzerland). Positive controls without S9 mix were 2-Nitrofluorene (2 µg/mL) and 4-nitroquinoline N-oxide (0.1 µg/mL) whereas 1 and 2.5 µg/mL of 2-aminoanthracene solutions were used as positive controls with S9 against TA 98 and TA100, respectively. Solvent control was prepared with 4% DMSO. At the end of the experiment, revertant bacteria dropped the pH of solution and indicator medium color was changed to yellow. Yellow wells were counted as positive and compared with the negative control. Fold induction over the negative control and fold induction over the baseline were calculated. Fold induction over the negative control is the ratio of the mean number of positive wells for the dose concentration divided by the mean number of positive wells for the zero dose (negative) control. Fold induction over the baseline is the ratio of the mean number of positive wells for the dose concentration divided by zero dose baseline. The zero dose baseline is obtained by adding one standard deviation to the mean number of positive wells of the zero dose control. Mutagenicity was determined according to the criteria from previous studies[52]^,[56]. For a value ≤3 and significant increases between two and three-fold the baselines were classified as a weak mutagen, and increases ≥ three-fold the baselines were classified as a mutagen. […] As a rule, at least two adjacent doses with significant increases or a significant increase at the highest dose level should be observed for a mutagenic compound. All doses were compared according to Student’s t-test at p < .05 for statistical significance.
Ames assay was performed to investigate the genotoxicity of compounds 6h and 6l.

COc1ccc2[nH]c(SCc3ccc(C(C)C(=O)O)cc3)nc2c1 (stereo not shown) [Compound 6l, 2-(4-(((5-Methoxy-1H-benzo[d]imidazol-2-yl)thio)methyl)phenyl)propanoic acid]
fold induction: < 1.5
